The record followed here is patent US9434695B2, “Nitrogenous heterocyclic derivatives and their application in drugs” (SUNSHINE LAKE PHARMA CO., LTD., priority 2012, dated 2016).

This assay relates to BHK-21 cells. The assay can be described thus: inhibition of BHK-21 cell proliferation (CCK-8, optical density at 450 nm). Format: cell-based. As to conditions: for pIC50: Mesocricetus auratus, inhibition ratio of cell proliferation, 48 hours after dosing, CCK-8; for The ratio with PFD (multiple): ratio of Pirfenidone IC50 from the compound IC50, the bigger the multiple, the better the vitro inhibitory activity, 48 hours. The procedure:
Taking BHK-21 cells which in exponential growth phase, collecting and counting the cells which had digestive transfer culture after fusion growth 85-95%, adjusting the cell density to 2×10^4 cells per milliliter, seeding the cells into 96-well plates, 100 μl/well, the cells were incubated in a 5% CO2 incubator at 37° C.
The upper clear liquid of the 96-well plates was removed after the cells adhering to the wall 24 hours. The above compounds were confected into solutions of different concentration and the solutions were added to the wells, 100 μl/well. Each concentration solution in 3 replicates, the cells were subcultured 48 hours after dosing.
3. Testing the Optical Density
10 μl of CCK-8 solution was added to each well 48 hours after dosing, and incubated for 2 hours. The optical density (A) of each well was determined by a microplate reader at 450 nm wavelength. Calculating the inhibition ratio of cell proliferation of each compound is based on A and the inhibition ratio of cell proliferation (inhibition ratio, IR)=(1−value of experimental group (Ai)/value of control group (Ao))×100% and the IC50 of each compound at 48 hours was calculated by data processing software.

pIC50: −log10 of the molar value.

Usually pIC50 stands for the IC50 on a negative log10 scale, so that one unit is a factor of ten. As to `Cc1cc(=O)n(-c2ccc(N3CCOCC3)c(Cl)c2)c(COc2cccc(C#N)c2)n1` [Example 65, 3-((1-(3-chloro-4-morpholinophenyl)-4-methyl-6-oxo-1,6-dihydropyrimidin-2-yl)methoxy)benzonitrile], the pIC50 was 4.70 and the “The ratio with PFD (multiple)” value is 119.61 multiple.
On to `Cc1cc(=O)n(-c2ccc(N3CCOCC3)c(F)c2)c(CCCOc2cccc(F)c2)n1` [Example 53, 3-(3-fluoro-4-morpholinophenyl)-2-(3-(3-fluorophenoxy)propyl)-6-methylpyrimidin-4(3H)-one], for which the pIC50 was 3.30 and the “The ratio with PFD (multiple)” value was 15.49 multiple.
For `Cc1cc(=O)n(-c2ccc(N(C)CCN3CCOCC3)c(F)c2)c(C)n1` [Example 28, 3-(3-fluoro-4-(methyl(2-morpholinoethyl)amino)phenyl)-2,6-dimethylpyrimidin-4(3H)-one], in that order: 2.30 and 1.60 multiple.
The like results for `Cc1ccc(=O)n(-c2ccc(CN3CCOCC3)c(F)c2)c1` [Example 1, 1-(3-fluoro-4-(morpholinomethyl)phenyl)-5-methylpyridin-2(1H)-one] were, in that order, 3.40 and 16.6 multiple.
The like results for `Cc1cc(=O)n(-c2ccc(N3CCS(=O)(=O)CC3)c(F)c2)c(C)n1` [Example 10, 3-(4-(1,1-dioxidothiomorpholino)-3-fluorophenyl)-2,6-dimethylpyrimidin-4(3H)-one] were, in that order, 2.26 and 0.72 multiple.
Consider `Cc1cc(=O)n(-c2ccc(N3CCOCC3)c(F)c2)c(COC2CCCCC2)n1` [Example 58, 2-((cyclohexyloxy)methyl)-3-(3-fluoro-4-morpholinophenyl)-6-methylpyrimidin-4(3H)-one], for which the pIC50 is 3.54 and the “The ratio with PFD (multiple)” value was found to be 26.37 multiple.
For `COc1cccc(OCc2nc(C)cc(=O)n2-c2ccc(N3CCOCC3)c(F)c2)c1` [Example 71, 3-(3-fluoro-4-morpholinophenyl)-2-((3-methoxyphenoxy)methyl)-6-methylpyrimidin-4(3H)-one], in that order: 4.10 and 48.76 multiple.
Consider `Cc1cc(=O)n(-c2ccc(NC(C)(C)Cc3ccc4ccccc4c3)c(Cl)c2)c(C)n1` [Example 45, 3-(3-chloro-4-((2-methyl-1-(naphthalen-2-yl)propan-2-yl)amino)phenyl)-2,6-dimethylpyrimidin-4(3H)-one], for which the pIC50 is 4.15 and the “The ratio with PFD (multiple)” value came to 42.60 multiple.
Take `Cc1cc(=O)n(-c2ccc(N3CCOCC3)c(Cl)c2)c(COc2ccc(Cl)c3ccccc23)n1` [Example 67]: the pIC50 was 3.85 and the “The ratio with PFD (multiple)” value came out at 25.09 multiple.
For `Cc1cc(=O)n(-c2ccc3ccn(COc4cccc(C#N)c4)c3c2)c(C)n1` [Example 48, 3-((6-(2,4-dimethyl-6-oxopyrimidin-1(6H)-yl)-1H-indol-1-yl)methoxy)benzonitrile], in that order: 3.46 and 10.60 multiple.
The like results for `Cc1cc(=O)n(-c2ccc(N3CCOCC3)c(Cl)c2)c(COc2cccc(Cl)c2)n1` [Example 64, 3-(3-chloro-4-morpholinophenyl)-2-((3-chlorophenoxy)methyl)-6-methylpyrimidin-4(3H)-one] were, in that order, 3.72 and 10.69 multiple.
The like results for `Cc1cc(=O)n(-c2ccc(N3CCN(C)CC3)c(F)c2)c(COc2cccc(F)c2)n1` [Example 55, 3-(3-fluoro-4-(4-methylpiperazin-1-yl)phenyl)-2-((3-fluorophenoxy)methyl)-6-methylpyrimidin-4(3H)-one] were, in that order, 4.30 and 46.92 multiple.
As for `Cc1cc(=O)n(-c2ccc(NCCCCN3CCOCC3)c(F)c2)c(C)n1` [Example 31, 3-(3-fluoro-4-((4-morpholinobutyl)amino)phenyl)-2,6-dimethylpyrimidin-4(3H)-one], the negative-log IC50 (pIC50) was 2.65 and the “The ratio with PFD (multiple)” value was found to be 3.50 multiple.
With `Cc1cc(=O)n(-c2ccc(-n3cccc3)c(F)c2)c(C)n1` [Example 18, 3-(3-fluoro-4-(1H-pyrrol-1-yl)phenyl)-2,6-dimethylpyrimidin-4(3H)-one], the pIC50 is 3.25 and the “The ratio with PFD (multiple)” value amounted to 8.10 multiple.
For `Cc1cc(=O)n(-c2ccc(N3CCOCC3)c(F)c2)c(COc2cc(F)cc(F)c2)n1` [Example 50, 2-((3,5-difluorophenoxy)methyl)-3-(3-fluoro-4-morpholinophenyl)-6-methylpyrimidin-4(3H)-one], in that order: 4.22 and 42.93 multiple.
For `Cc1cc(=O)n(-c2ccc(N3CCOCC3)c(C(F)(F)F)c2)c(C)n1` [Example 47, 2,6-dimethyl-3-(4-morpholino-3-(trifluoromethyl)phenyl)pyrimidin-4(3H)-one], in that order: 3.03 and 3.92 multiple.
The like results for `Cc1cc(=O)n(-c2ccc(NCCN3CCOCC3)cc2Cl)c(C)n1` [Example 29, 3-(2-chloro-4-((2-morpholinoethyl)amino)phenyl)-2,6-dimethylpyrimidin-4(3H)-one] were, in that order, 2.98 and 6.82 multiple.
On to `Cc1cc(=O)n(-c2ccc(N3CCOCC3)c(Cl)c2)c(COc2cccc(F)c2)n1` [Example 63, 3-(3-chloro-4-morpholinophenyl)-2-((3-fluorophenoxy)methyl)-6-methylpyrimidin-4(3H)-one], for which the pIC50 was 4.40 and the “The ratio with PFD (multiple)” value came out at 47.43 multiple.
For `Cc1cc(=O)n(-c2ccc(OCCN3CCOCC3)c(F)c2)c(COc2cccc(F)c2)n1` [Example 56, 3-(3-fluoro-4-(2-morpholinoethoxy)phenyl)-2-((3-fluorophenoxy)methyl)-6-methylpyrimidin-4(3H)-one], in that order: 4.00 and 54.14 multiple.
For `Cc1cc(=O)n(-c2ccc(N3CCOCC3)c(F)c2)c(C(F)(F)Oc2cccc(F)c2)n1` [Example 69, 2-(difluoro(3-fluorophenoxy)methyl)-3-(3-fluoro-4-morpholinophenyl)-6-methylpyrimidin-4(3H)-one], in that order: 4.05 and 42.03 multiple.
In the case of `CCCCCCN(CCCCCC)c1ccc(-n2c(COc3cccc(F)c3)nc(C)cc2=O)cc1F` [Example 62, 3-(4-(dihexylamino)-3-fluorophenyl)-2-((3-fluorophenoxy)methyl)-6-methylpyrimidin-4(3H)-one], the pIC50 was 3.51 and the “The ratio with PFD (multiple)” value came to 24.68 multiple.
For `Cc1cc(=O)n(-c2ccc(N3CCOCC3=O)c(F)c2)c(COc2cccc(F)c2)n1` [Example 66, 4-(2-fluoro-4-(2-((3-fluorophenoxy)methyl)-4-methyl-6-oxopyrimidin-1(6H)-yl)phenyl) morpholin-3-one], the pIC50 is 3.64 and the “The ratio with PFD (multiple)” value worked out at 14.95 multiple.
For `CCCCCCN(CCCCCC)c1ccc(-n2c(C)nc(C)cc2=O)cc1Br` [Example 41, 3-(3-bromo-4-(dihexylamino)phenyl)-2,6-dimethylpyrimidin-4(3H)-one], in that order: 4.22 and 32.65 multiple.
The like results for `Cc1cc(=O)n(-c2ccc(N3CCOCC3)c(F)c2)c(CCc2cccc(F)c2)n1` [Example 52, 3-(3-fluoro-4-morpholinophenyl)-2-(3-fluorophenethyl)-6-methylpyrimidin-4(3H)-one] were, in that order, 3.74 and 14.15 multiple.
For `Cc1cc(=O)n(-c2ccc(N(CC(C)C)CC(C)C)c(F)c2)c(C)n1` [Example 23, 3-(4-(diisobutylamino)-3-fluorophenyl)-2,6-dimethylpyrimidin-4(3H)-one], in that order: 3.96 and 30.31 multiple.
Take `CCCCCCNc1ccc(-n2c(C)nc(C)cc2=O)cc1F` [Example 33, 3-(3-fluoro-4-(hexylamino)phenyl)-2,6-dimethylpyrimidin-4(3H)-one]: the pIC50 was 3.52 and the “The ratio with PFD (multiple)” value was 25.70 multiple.
The like results for `Cc1cc(=O)n(-c2ccc(N3CCN(C)CC3)c(F)c2)c(C)n1` [Example 12, 3-(3-fluoro-4-(4-methylpiperazin-1-yl)phenyl)-2,6-dimethylpyrimidin-4(3H)-one] were, in that order, 2.85 and 2.74 multiple.
The like results for `CCN(CC)c1ccc(-n2c(C)nc(C)cc2=O)cc1F` [Example 8, 3-(4-(diethylamino)-3-fluorophenyl)-2,6-dimethylpyrimidin-4(3H)-one] were, in that order, 2.78 and 2.31 multiple.
For `CCCOCCN(CCOCCC)c1ccc(-n2c(C)nc(C)cc2=O)cc1F` [Example 32, 3-(4-(bis(2-propoxyethyl)amino)-3-fluorophenyl)-2,6-dimethylpyrimidin-4(3H)-one], in that order: 3.09 and 9.60 multiple.
With `CCOCCCNc1ccc(-n2c(C)nc(C)cc2=O)cc1F` [Example 34, 3-(4-((3-ethoxypropyl)amino)-3-fluorophenyl)-2,6-dimethylpyrimidin-4(3H)-one], the pIC50 is 2.60 and the “The ratio with PFD (multiple)” value turned out to be 3.10 multiple.
